Assay results taken from ChEMBL document CHEMBL1201862, “PubChem BioAssay data set” (2004).
Where a name gives a salt, the structure may show the parent alone.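 Dose response: 5 concentrations. Exposure: 48 h. Format: 96-well plates. Endpoint: linear interpolation; highest concentration if not reached. GI50 = concentration required for 50% inhibition of growth.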 Active and inactive are the calls of the source. Rule as the data show it: active = GI50 up to about 1.1 µM and inactive = higher.

What was measured:
Assay in all cases: growth of human tumour cells (NCI), 48 h
SF-295 = system: SF-295
MCF7 = system: MCF7
OVCAR-4 = system: OVCAR-4
SNB-19 = system: SNB-19
SNB-75 = system: SNB-75
SR = system: SR
DU-145 = system: DU-145
786-0 = system: 786-0
SK-MEL-5 = system: SK-MEL-5
NCI-H23 = system: NCI-H23
HOP-92 = system: HOP-92
BT-549 = system: BT-549
ACHN = system: ACHN
SK-MEL-28 = system: SK-MEL-28
RPMI-8226 = system: RPMI-8226
A549 = system: A549
K562 = system: K562
HCT-15 = system: HCT-15
Malme-3M = system: Malme-3M

SMILES | GI50 (SF-295) | GI50 (MCF7) | GI50 (OVCAR-4) | GI50 (SNB-19) | GI50 (SNB-75) | GI50 (SR) | GI50 (DU-145) | GI50 (786-0) | GI50 (SK-MEL-5) | GI50 (NCI-H23) | GI50 (HOP-92) | GI50 (BT-549) | GI50 (ACHN) | GI50 (SK-MEL-28) | GI50 (RPMI-8226) | GI50 (A549) | GI50 (K562) | GI50 (HCT-15) | GI50 (Malme-3M)
Cc1nn(C(=O)c2ccc(Cl)cc2)c2c1C(c1ccco1)SC(=N)N2 (stereo not drawn) | > 10 µM (inactive) | > 10 µM (inactive) | > 10 µM (inactive) | > 10 µM (inactive) | > 10 µM (inactive) | > 10 µM (inactive) | > 10 µM (inactive) | > 10 µM (inactive) | > 10 µM (inactive) | > 10 µM (inactive) | > 10 µM (inactive) | > 10 µM (inactive) | > 10 µM (inactive) | > 10 µM (inactive) | > 10 µM (inactive) | > 10 µM (inactive) | > 10 µM (inactive) | > 10 µM | 
CSc1c(C#N)c(=O)[nH]c2[nH]nc(C)c12 |  | > 100 µM (inactive) | > 100 µM (inactive) | > 100 µM (inactive) | > 100 µM (inactive) | > 100 µM (inactive) | > 100 µM (inactive) | > 100 µM (inactive) | > 100 µM (inactive) | > 100 µM (inactive) |  | > 100 µM (inactive) |  | > 100 µM (inactive) | > 100 µM (inactive) | > 100 µM (inactive) | > 100 µM (inactive) | > 100 µM | > 100 µM (inactive)
NCCc1cc(O)c(O)cc1O [OXIDOPAMINE HYDROCHLORIDE] | 24 µM (inactive) | 25.3 µM (inactive) |  | 32.5 µM (inactive) | 23.7 µM (inactive) | 0.619 µM (active) | 17.7 µM (inactive) | 18.6 µM (inactive) | 18.5 µM (inactive) |  |  | 16.6 µM (inactive) | 20.9 µM (inactive) | > 100 µM (inactive) | 3.19 µM (inactive) | 35 µM (inactive) | 21.5 µM (inactive) | 17.1 µM | > 100 µM (inactive)
Nn1c(CCCCCCCCc2nnc(COc3ccc(Cl)cc3)n2N)nnc1COc1ccc(Cl)cc1 | > 100 µM (inactive) | > 100 µM (inactive) | > 100 µM (inactive) | > 100 µM (inactive) | > 100 µM (inactive) |  | > 100 µM (inactive) | > 100 µM (inactive) | > 100 µM (inactive) | > 100 µM (inactive) | > 100 µM (inactive) | > 100 µM (inactive) | > 100 µM (inactive) | > 100 µM (inactive) | > 100 µM (inactive) | > 100 µM (inactive) | > 100 µM (inactive) | > 100 µM | > 100 µM (inactive)
Cc1cccc(-c2cc(O)c3cccnc3n2)c1 | 1.36 µM (inactive) | 0.378 µM (active) | 24 µM (inactive) | 1.69 µM (inactive) | 1.26 µM (inactive) | 0.0946 µM (active) | 3.94 µM (inactive) | 0.569 µM (active) | 0.467 µM (active) | 2.79 µM (inactive) | 88.3 µM (inactive) | > 100 µM (inactive) | 18.7 µM (inactive) | 0.406 µM (active) | 0.679 µM (active) | 1.34 µM (inactive) | 0.0993 µM (active) | 0.299 µM | 
Cc1ccc(Nc2cn(COCc3ccccc3)c(=O)[nH]c2=O)cc1 | 39.7 µM (inactive) | > 100 µM (inactive) | > 100 µM (inactive) | 75.2 µM (inactive) |  | > 100 µM (inactive) | > 100 µM (inactive) | 43.5 µM (inactive) | > 100 µM (inactive) | 25.5 µM (inactive) | > 100 µM (inactive) | 11.7 µM (inactive) | 37 µM (inactive) | > 100 µM (inactive) | > 100 µM (inactive) | > 100 µM (inactive) | > 100 µM (inactive) | > 100 µM | 
Cc1ccc(/N=C2/SC(c3ccc(C)cc3)(c3ccc(C)cc3)c3ccccc32)cc1 | > 100 µM (inactive) | > 100 µM (inactive) | > 100 µM (inactive) | > 100 µM (inactive) | > 100 µM (inactive) |  | > 100 µM (inactive) | > 100 µM (inactive) | > 100 µM (inactive) | > 100 µM (inactive) | > 100 µM (inactive) | > 100 µM (inactive) | > 100 µM (inactive) | > 100 µM (inactive) | > 100 µM (inactive) | > 100 µM (inactive) | > 100 µM (inactive) | > 100 µM | > 100 µM (inactive)
CC1=CC2(O)OC3(CC2=C(C)C)C(C)CCC13 (stereo not drawn) | > 100 µM (inactive) | > 100 µM (inactive) | > 100 µM (inactive) | > 100 µM (inactive) | 58.5 µM (inactive) |  | > 100 µM (inactive) | > 100 µM (inactive) | > 100 µM (inactive) | > 100 µM (inactive) | > 100 µM (inactive) | > 100 µM (inactive) | > 100 µM (inactive) |  | > 100 µM (inactive) | > 100 µM (inactive) | > 100 µM (inactive) | > 100 µM | > 100 µM (inactive)
COc1ccccc1NC(=O)CC(=O)N1N=C(N2c3ccccc3Sc3ccccc32)CC1c1ccccc1 (stereo not drawn) | > 100 µM (inactive) | > 100 µM (inactive) | > 100 µM (inactive) | > 100 µM (inactive) | > 100 µM (inactive) | > 100 µM (inactive) | > 100 µM (inactive) | > 100 µM (inactive) | > 100 µM (inactive) | > 100 µM (inactive) | > 100 µM (inactive) | > 100 µM (inactive) | > 100 µM (inactive) | > 100 µM (inactive) | > 100 µM (inactive) | > 100 µM (inactive) | > 100 µM (inactive) | > 100 µM | 
C/N=c1/oc2ccccc2cc1C(N)=O | > 100 µM (inactive) | 87.7 µM (inactive) |  | 56.4 µM (inactive) | > 100 µM (inactive) | > 100 µM (inactive) | > 100 µM (inactive) | > 100 µM (inactive) | > 100 µM (inactive) | > 100 µM (inactive) | > 100 µM (inactive) | > 100 µM (inactive) | > 100 µM (inactive) | > 100 µM (inactive) | > 100 µM (inactive) | > 100 µM (inactive) | > 100 µM (inactive) | > 100 µM | 
O=S(=O)(c1ccc(/N=N/O)nc1)c1ccc2ccccc2c1 | > 100 µM (inactive) | > 100 µM (inactive) | 32.6 µM (inactive) | > 100 µM (inactive) | 22.1 µM (inactive) | > 100 µM (inactive) | > 100 µM (inactive) | > 100 µM (inactive) | 36.8 µM (inactive) | 65.9 µM (inactive) |  | > 100 µM (inactive) | > 100 µM (inactive) | > 100 µM (inactive) |  | > 100 µM (inactive) | 75 µM (inactive) | > 100 µM | 26.5 µM (inactive)
c1ccc2c(c1)Cn1c-2nc2ccccc21 | > 100 µM (inactive) | > 100 µM (inactive) | > 100 µM (inactive) | > 100 µM (inactive) | < 0.01 µM (active) |  | 23.9 µM (inactive) | > 100 µM (inactive) | 42.4 µM (inactive) | > 100 µM (inactive) | > 100 µM (inactive) | > 100 µM (inactive) | 96.6 µM (inactive) | > 100 µM (inactive) | 65 µM (inactive) | 67.6 µM (inactive) | > 100 µM (inactive) | 94.4 µM | 76 µM (inactive)
CCOC(=O)C1C(=O)C=C(c2cc(C)ccc2O)CC1c1cccc(Br)c1 (stereo not drawn) | 13.6 µM (inactive) | 14.9 µM (inactive) | 0.075 µM (active) | 13.4 µM (inactive) |  | 5.13 µM (inactive) | 34.4 µM (inactive) | 17.6 µM (inactive) | 14.2 µM (inactive) | 17.5 µM (inactive) | 10.4 µM (inactive) | 24.9 µM (inactive) | 18.7 µM (inactive) |  | 13.9 µM (inactive) | 20.1 µM (inactive) | 11.7 µM (inactive) | 3.24 µM | 16.3 µM (inactive)
Nc1ccc2nc(N)n[n+]([O-])c2c1 | 10 µM (inactive) | > 100 µM (inactive) | > 100 µM (inactive) | > 100 µM (inactive) | 92.7 µM (inactive) | > 100 µM (inactive) | > 100 µM (inactive) | > 100 µM (inactive) | > 100 µM (inactive) | > 100 µM (inactive) |  | > 100 µM (inactive) | > 100 µM (inactive) | > 100 µM (inactive) | > 100 µM (inactive) | > 100 µM (inactive) | > 100 µM (inactive) | > 100 µM | 
c1ccc(Nc2nnc(Cn3ccc4ccccc43)s2)cc1 | 15.9 µM (inactive) | 40.3 µM (inactive) | 36.8 µM (inactive) | 60 µM (inactive) | 20.9 µM (inactive) | 12.8 µM (inactive) | 92.9 µM (inactive) | 52.7 µM (inactive) | 57.4 µM (inactive) | > 100 µM (inactive) | 54.7 µM (inactive) | > 100 µM (inactive) | 39.8 µM (inactive) | 80.5 µM (inactive) | 48.5 µM (inactive) | 32.4 µM (inactive) | 31.2 µM (inactive) | 38.5 µM | 
O=C(O)Cn1ccc(=O)c2c([N+](=O)[O-])cccc21 | > 100 µM (inactive) | > 100 µM (inactive) |  | > 100 µM (inactive) | > 100 µM (inactive) | > 100 µM (inactive) | > 100 µM (inactive) | > 100 µM (inactive) | > 100 µM (inactive) | > 100 µM (inactive) |  | > 100 µM (inactive) | > 100 µM (inactive) | > 100 µM (inactive) |  | > 100 µM (inactive) | > 100 µM (inactive) | > 100 µM | > 100 µM (inactive)
O=C(CCl)Nc1cc(Cl)c(Cl)cc1Cl | 5.26 µM (inactive) | 2.07 µM (inactive) | 2.27 µM (inactive) | 2.27 µM (inactive) |  | 0.644 µM (active) | 3.16 µM (inactive) | 1.51 µM (inactive) | 1.78 µM (inactive) | 1.7 µM (inactive) |  | 1.77 µM (inactive) | 2.22 µM (inactive) | 2.32 µM (inactive) | 4.74 µM (inactive) | 2.35 µM (inactive) | 3.66 µM (inactive) | 2.09 µM | 1.41 µM (inactive)
